Consider 20 compounds from ChEMBL document CHEMBL4321841, “Development of small molecule inhibitors targeting NLRP3 inflammasome pathway for inflammatory diseases” (Eur J Med Chem, 2020).

Data set [1] concerns the target T1, NACHT, LRR and PYD domains-containing protein 3 (Homo sapiens, UniProt Q96P20). Nature of the data set: Inhibition of NLRP3 inflammasome activation in LPS-primed human THP1 cells assessed as reduction in IL-1beta level at 20 uM preincubated for 1 hr followed by addition of ATP and measured after 3 hrs by ELISA method relative to control. For orientation: An ELISA detects its analyte on a solid surface through an enzyme-linked reagent.

The target of data set [2] is T2, NACHT, LRR and PYD domains-containing protein 3 (Mus musculus, UniProt Q8R4B8). Nature of the data set: Inhibition of NLRP3 inflammasome activation in LPS-primed mouse NG5 cells assessed as reduction in IL-1beta level incubated for 15followed by addition of ATP by ELISA method. In kind it is cell-based.
The nature of data set [3]: Cmax in mouse at 1000 mg, po administered once daily for 8 days. The format is ADME, organism-based. On the set-up: dose 1000 mg, route oral. As to conditions: in vivo.
Data set [4] addresses T2, NACHT, LRR and PYD domains-containing protein 3. Nature of the data set: Inhibition of NLRP3 inflammasome activation in LPS-primed mouse J774A.1 cells assessed as reduction in IL-1beta level preincubated for 30 mins followed by addition of nigericin and measured after 40 mins by ELISA.
Data set [5] has the same target. Nature of the data set: Inhibition of NLRP3 inflammasome activation in mouse J774A.1 cells assessed as reduction in IL-1beta level preincubated for 2 hrs followed by LPS-stimulation and further incubated for 5.5 hrs and subsequently ATP addition and measured after 30 mins by ELISA method. The format is cell-based.
For data set [6], the target named is T1, NACHT, LRR and PYD domains-containing protein 3. Nature of the data set: Inhibition of recombinant human NLRP3 ATPase assessed as reduction in ADP formation preincubated for 10 mins followed by ATP addition and measured after 40 mins by ADP-Glo assay. For orientation: ADP-Glo first removes unused ATP, then detects ADP through luciferase.
In data set [7] the test system is THP-1. Nature of the data set: Inhibition of pyroptosis in PMA-differentiated and LPSprimed human THP1 cells assessed as LDH activity at 10 uM preincubated for 1 hr followed by addition of ATP and measured after 1 hr by CytoTox 96 Non-Radioactive Cytotoxicity Assay relative to control. In kind it is functional.
Data set [8] concerns THP-1. In words: Inhibition of pyroptosis in PMA-differentiated and LPS-primed human THP1 cells assessed as LDH activity preincubated for 1 hr followed by addition of ATP and measured after 1 hr by CytoTox 96 Non-Radioactive Cytotoxicity Assay. In kind it is functional, cell-based.
Data set [9] addresses T1, NACHT, LRR and PYD domains-containing protein 3. In words: Inhibition of NLRP3 inflammasome activation in PMA differentiated human THP1 cells assessed as reduction in IL-1beta level at 10 uM preincubated for 30 mins followed by addition of MSU and meaured after 6 hrs by ELISA method relative to control.
For data set [10] the target is unchanged. Nature of the data set: Inhibition of NLRP3 inflammasome activation in LPS-stimulated human THP1 cells assessed as reduction in IL-1beta level at 10 uM preincubated for 1 hr followed by addition of ATP and measured after 1 hr by ELISA method relative to control.
In data set [11] the target is T2, NACHT, LRR and PYD domains-containing protein 3. Nature of the data set: Inhibition of NLRP3 inflammasome activation in LPS-primed mouse J774A.1 cells assessed as reduction in IL-1beta level preincubated for 1 hr followed by addition of ATP and measured after 30 mins by ELISA method.
Data set [12] shares this target. Nature of the data set: Inhibition of NLRP3 inflammasome activation in LPS-primed mouse bone marrow derived macrophages assessed as reduction in IL-1beta level preincubated for 30 mins followed by addition of ATP and measured after 1 hr by ELISA method.
The target in data set [13] is NACHT, LRR and PYD domains-containing protein 3 (Mus musculus) (UniProt Q8R4B8). In words: Inhibition of NLRP3 inflammasome activation in LPS-primed mouse J774A.1 cells assessed as reduction in IL-1beta level at 10 uM preincubated for 1 hr followed by addition of ATP and measured after 30 mins by ELISA method relative to control.
For data set [14], the target named is T1, NACHT, LRR and PYD domains-containing protein 3. In words: Inhibition of NLRP3 inflammasome activation in PMA differentiated human THP1 cells assessed as reduction in IL-1beta level preincubated for 30 mins followed by addition of MSU and meaured after 6 hrs by ELISA method relative to control.
In data set [15] the target is T2, NACHT, LRR and PYD domains-containing protein 3. Nature of the data set: Inhibition of NLRP3 inflammasome activation in LPS-primed mouse bone marrow derived macrophages incubated for 1 hr followed by addition of ATP and measured after 1 hr by immunoblotting analysis. A general note: A western blot detects proteins with antibodies after separation by electrophoresis.

The target in data set [16] is T1, NACHT, LRR and PYD domains-containing protein 3. In words: Inhibition of NLRP3 inflammasome activation in LPS-primed human THP1 cells assessed as reduction in IL-1beta level preincubated for 1 hr followed by addition of ATP and measured after 1 hr by ELISA method.
The nature of data set [17]: Half life in C57BL/6 mouse plasma at 3 mg/kg, iv or 20 mg/kg, po. The format is ADME, organism-based. The settings on record: in vivo.
A further data set has as its target T3, Peroxiredoxin-1 (Homo sapiens, UniProt Q06830).
T3 sequence (Q06830 whole entry): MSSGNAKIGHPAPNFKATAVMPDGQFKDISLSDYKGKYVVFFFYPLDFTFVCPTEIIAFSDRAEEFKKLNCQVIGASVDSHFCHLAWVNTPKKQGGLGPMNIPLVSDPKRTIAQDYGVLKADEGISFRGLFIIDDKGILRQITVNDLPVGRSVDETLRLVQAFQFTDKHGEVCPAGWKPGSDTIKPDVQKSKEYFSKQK
In words: Inhibition of PRDX1 in human PMA-differentiated LPS-stimulated THP1 cells assessed as reduction in NLRP3 inflammasome activation preincubated for 1 hr followed by addition of ATP and mesured after 1 hr by ELISA.

The target of data set [18] is T2, NACHT, LRR and PYD domains-containing protein 3. Nature of the data set: Inhibition of NLRP3 inflammasome activation in LPS-primed C57BL/6 mouse bone marrow derived macrophages preincubated for 15 mins followed by addition of ATP and measured after 1 hr by ELISA.

Usually inhibition stands for the change of the read-out against control, counted positive when it falls. A word on the IC50: it is the point on the concentration scale where inhibition reaches its midpoint. In general, Cmax refers to the highest concentration seen after dosing.

T1 sequence (Q96P20 whole entry, the tested form may be a part): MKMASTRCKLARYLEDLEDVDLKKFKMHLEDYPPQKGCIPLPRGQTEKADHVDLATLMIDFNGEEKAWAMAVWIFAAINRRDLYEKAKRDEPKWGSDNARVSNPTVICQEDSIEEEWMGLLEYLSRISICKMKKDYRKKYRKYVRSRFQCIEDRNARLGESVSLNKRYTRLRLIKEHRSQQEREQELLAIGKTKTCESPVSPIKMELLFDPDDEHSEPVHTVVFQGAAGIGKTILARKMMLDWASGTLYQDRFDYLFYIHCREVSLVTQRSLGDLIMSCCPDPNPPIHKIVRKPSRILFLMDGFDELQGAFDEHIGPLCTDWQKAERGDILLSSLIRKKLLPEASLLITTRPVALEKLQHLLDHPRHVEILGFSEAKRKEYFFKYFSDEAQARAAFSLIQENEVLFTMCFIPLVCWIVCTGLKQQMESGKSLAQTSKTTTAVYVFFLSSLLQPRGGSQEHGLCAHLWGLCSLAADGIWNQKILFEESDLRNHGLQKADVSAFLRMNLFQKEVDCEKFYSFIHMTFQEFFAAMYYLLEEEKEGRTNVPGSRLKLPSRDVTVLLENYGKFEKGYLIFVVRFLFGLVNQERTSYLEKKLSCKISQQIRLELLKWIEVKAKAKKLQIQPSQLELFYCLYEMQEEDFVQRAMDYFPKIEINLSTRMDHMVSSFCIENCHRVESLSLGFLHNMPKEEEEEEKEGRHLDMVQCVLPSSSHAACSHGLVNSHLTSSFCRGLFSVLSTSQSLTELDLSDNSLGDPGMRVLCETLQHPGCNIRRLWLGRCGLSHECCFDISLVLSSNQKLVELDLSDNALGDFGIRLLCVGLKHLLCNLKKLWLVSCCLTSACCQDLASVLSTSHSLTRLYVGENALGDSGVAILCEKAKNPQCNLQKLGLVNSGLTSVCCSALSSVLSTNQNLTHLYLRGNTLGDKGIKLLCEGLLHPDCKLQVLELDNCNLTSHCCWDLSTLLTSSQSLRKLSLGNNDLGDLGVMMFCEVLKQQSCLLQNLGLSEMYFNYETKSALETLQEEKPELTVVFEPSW
T2 sequence (Q8R4B8 whole entry, the tested form may be a part): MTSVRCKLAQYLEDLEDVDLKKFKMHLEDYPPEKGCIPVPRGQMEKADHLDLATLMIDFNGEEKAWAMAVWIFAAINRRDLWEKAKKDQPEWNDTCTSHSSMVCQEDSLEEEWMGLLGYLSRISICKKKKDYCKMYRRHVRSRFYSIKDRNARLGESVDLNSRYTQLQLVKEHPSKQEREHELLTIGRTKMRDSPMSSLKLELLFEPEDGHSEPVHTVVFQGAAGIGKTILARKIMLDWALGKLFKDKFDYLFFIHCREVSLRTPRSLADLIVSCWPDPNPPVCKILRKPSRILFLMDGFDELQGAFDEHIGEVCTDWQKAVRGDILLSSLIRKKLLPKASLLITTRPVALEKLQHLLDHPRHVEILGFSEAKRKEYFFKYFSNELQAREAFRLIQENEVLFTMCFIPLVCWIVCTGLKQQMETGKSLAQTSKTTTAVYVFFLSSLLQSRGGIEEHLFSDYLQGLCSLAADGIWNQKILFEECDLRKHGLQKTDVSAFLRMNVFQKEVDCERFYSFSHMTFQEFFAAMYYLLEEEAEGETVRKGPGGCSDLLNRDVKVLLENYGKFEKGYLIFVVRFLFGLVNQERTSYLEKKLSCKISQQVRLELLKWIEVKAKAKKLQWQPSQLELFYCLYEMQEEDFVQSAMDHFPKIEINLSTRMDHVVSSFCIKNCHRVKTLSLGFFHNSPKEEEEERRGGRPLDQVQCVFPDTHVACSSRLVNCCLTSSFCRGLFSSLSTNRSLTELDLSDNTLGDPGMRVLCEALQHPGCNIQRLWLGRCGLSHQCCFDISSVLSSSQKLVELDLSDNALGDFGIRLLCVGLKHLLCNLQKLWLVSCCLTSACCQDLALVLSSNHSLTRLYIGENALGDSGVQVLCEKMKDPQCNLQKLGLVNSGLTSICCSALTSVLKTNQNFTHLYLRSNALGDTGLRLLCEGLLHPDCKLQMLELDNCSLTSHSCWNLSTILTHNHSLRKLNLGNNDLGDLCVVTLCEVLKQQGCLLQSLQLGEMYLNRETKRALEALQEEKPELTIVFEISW
NACHT, LRR and PYD domains-containing protein 3 (Mus musculus), sequence (Q8R4B8 whole entry, the tested form may be a part): as above

Regarding `CCCCC/C=C/C(=O)CCc1ccc(O)c(OC)c1`, the inhibition in data set [1] came to 100%.
Take `Cc1ccc(S(=O)(=O)/C=C/C#N)cc1`: in data set [2], the IC50 was determined as 12 µM.
`CS(=O)(=O)CCC#N` [DAPANSUTRILE] showed a maximum concentration (Cmax) in data set [3] of 311 µM. Moreover, the concentration for half-maximal inhibition (IC50) in [4] is 0.001 µM.
`COc1ccc(Cl)cc1C(=O)NCCc1ccc(S(=O)(=O)NO)cc1`: in [5], the 50% inhibitory concentration (IC50) was 8.45 µM.
For the compound `C=C(Cc1ccccc1Cl)C(=O)NCCc1ccc(S(N)(=O)=O)cc1`, the half-maximal inhibitory concentration (IC50) in data set [6] was 74 µM; with THP-1 [8] it was 23.2 µM. The inhibition at 10 µM in the data set on THP-1 [7] was 45.8%.
In the case of `O=c1cc(-c2ccc(Cl)c(Cl)c2)oc2ccccc12`, the inhibition in data set [9] amounted to 49.5%.
For the compound `c1cc2[nH]c(-c3cscn3)nc2cn1`, the inhibition in [10] worked out at 30%.
For the compound `CCCCCCC/C=C/C(=O)CCc1ccc(O)c(OC)c1`, in data set [1], the inhibition came out at 60.3%.
Regarding `COc1ccc2c(c1)C(=O)N(c1ccccc1)C2=O`, the concentration for half-maximal inhibition (IC50) in data set [11] is 5 µM.
On to `CCC1=C(C)CN(C(=O)NCCc2ccc(S(=O)(=O)NC(=O)Nc3c4c(cc5c3CCC5)CCC4)cc2)C1=O`, for which, in [12], the half-maximal inhibitory concentration (IC50) stood at 0.042 µM.
As for `COc1ccc(-c2nc(O)c3ccccc3n2)cc1`, the inhibition in [13] was 28.8%.
For `O=c1cc(-c2ccc(O)cc2)oc2cc(O)cc(O)c12` [APIGENIN], the concentration for half-maximal inhibition (IC50) in data set [14] was determined as 10 µM. Also, in [9], the inhibition was determined as 42.9%.
Take `CC1CC(=O)c2s/c(=N\C3CCCCC3)oc2C1` (centres undefined): it took 1.28 µM to reach half-maximal inhibition in data set [15] (IC50).
For `CCn1c(-c2ccccc2)nc2cc(C)ccc21`, the IC50 in data set [16] amounted to 10 µM.
Regarding `O=c1[nH]c(-c2ccc(C(F)(F)F)cc2)nc2ccccc12`, the inhibition in data set [13] was 21.3%.
In [17], `CC(C)(O)c1coc(S(=O)(=O)NC(=O)Nc2c3c(cc4c2CCC4)CCC3)c1` gave a t1/2 of 3.27 h.
For `O=C1/C(=C/c2ccccn2)CNC/C1=C\c1ccccn1`, the IC50 at Peroxiredoxin-1 is 0.95 µM.
For `Cc1cccc(Nc2ccccc2C(=O)O)c1C` [MEFENAMIC ACID], the IC50 in [18] worked out at 25 µM.
`O=[N+]([O-])c1ccc2[nH]c(-c3cscn3)nc2c1`: the inhibition in data set [10] amounted to 30%.
In the case of `O=c1[nH]c(-c2ccc([N+](=O)[O-])cc2)nc2ccccc12`, the concentration for half-maximal inhibition (IC50) in [11] is 5 µM.
